Data set [1] relates to PGE2 synthesis in HT-29 cells. The data set is described as follows: Inhibition of the PGE2 synthesis in HT-29 cells (PGE2 EIA). The note with it: 24 h at 37 °C, then 50 µM arachidonic acid 1 h. In kind it is cell-based. As to the method:
Exponentially growing HT-29 cells were seeded into 24-well plates at a concentration of 5 × 10^4 cells in 500 µL of cell culture medium per well. […] In the next step, the substrate arachidonic acid (Sigma Aldrich, St. Louis, MO, USA) at a concentration of 50 µM was added. After 1 h, the COX-catalyzed PGE2 production was stopped by removing the supernatant from the cells, which was analyzed by EIA (Prostaglandin E2 Kit—Monoclonal, Cayman Chemicals, Ann Arbor, MI, USA) according to the manufacturer’s protocol.
HT-29 cells express both isoenzymes at high levels, allowing COX-1/2 interaction to be studied using an antibody-based PGE2 assay, which quantifies the PGE2 released by the cells into the cell culture medium. All Zeise’s salt derivatives were tested at a concentration of 10 µM (Figure 4).

The target in data set [2] is T1, COX-1 (Ovis aries, UniProt P05979).
T1 construct: purchased Cayman Chemicals
T1 sequence (P05979 25-600): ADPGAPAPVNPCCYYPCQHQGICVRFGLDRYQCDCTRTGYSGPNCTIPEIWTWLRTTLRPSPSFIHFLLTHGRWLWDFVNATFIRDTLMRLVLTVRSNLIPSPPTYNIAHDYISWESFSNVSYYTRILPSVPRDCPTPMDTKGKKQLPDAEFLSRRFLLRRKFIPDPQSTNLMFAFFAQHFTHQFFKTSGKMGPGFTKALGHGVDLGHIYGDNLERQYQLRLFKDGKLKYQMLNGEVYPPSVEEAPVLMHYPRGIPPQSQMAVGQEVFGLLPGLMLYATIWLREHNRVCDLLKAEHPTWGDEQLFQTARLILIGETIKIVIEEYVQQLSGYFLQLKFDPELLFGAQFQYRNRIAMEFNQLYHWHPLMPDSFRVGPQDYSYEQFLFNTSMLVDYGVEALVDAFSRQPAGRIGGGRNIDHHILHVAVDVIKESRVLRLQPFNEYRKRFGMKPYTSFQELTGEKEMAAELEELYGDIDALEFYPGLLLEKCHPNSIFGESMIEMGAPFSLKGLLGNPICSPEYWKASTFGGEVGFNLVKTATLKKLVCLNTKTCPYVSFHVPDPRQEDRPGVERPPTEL
Also noted: method as in PMID 29492489, PMID 31617517. The following applies: isolated isoenzymes; cited from earlier work.

Data set [3] addresses T2, COX-2 (Homo sapiens, UniProt P35354).
T2 construct: purchased Cayman Chemicals
T2 sequence (P35354 18-604): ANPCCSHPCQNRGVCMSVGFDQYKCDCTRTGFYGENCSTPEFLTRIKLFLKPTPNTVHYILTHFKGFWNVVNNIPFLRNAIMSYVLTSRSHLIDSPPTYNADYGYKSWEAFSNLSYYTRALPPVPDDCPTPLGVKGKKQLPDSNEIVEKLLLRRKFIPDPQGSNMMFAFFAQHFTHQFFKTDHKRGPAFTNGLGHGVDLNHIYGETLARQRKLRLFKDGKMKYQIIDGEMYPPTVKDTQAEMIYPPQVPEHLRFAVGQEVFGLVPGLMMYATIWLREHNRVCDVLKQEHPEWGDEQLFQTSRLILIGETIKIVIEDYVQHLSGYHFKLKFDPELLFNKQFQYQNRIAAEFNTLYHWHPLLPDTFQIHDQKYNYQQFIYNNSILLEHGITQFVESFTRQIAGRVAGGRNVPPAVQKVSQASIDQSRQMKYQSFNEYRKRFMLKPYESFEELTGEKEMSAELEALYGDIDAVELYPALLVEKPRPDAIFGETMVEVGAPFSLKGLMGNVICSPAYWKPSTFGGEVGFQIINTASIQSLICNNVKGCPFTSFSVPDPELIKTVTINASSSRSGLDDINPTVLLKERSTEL
More on the design: method as in PMID 29492489, PMID 31617517. The note with it: isolated isoenzymes; cited from earlier work.

The target in data set [4] is T1, COX-1. Put plainly: COX Inhibitor Screening Assay (EIA) on isolated COX-1 isoenzyme. The following applies: incubation 10 min. In kind it is biochemical, ovine. As to the method:
(§1) The incubation of the respective complexes with the isoenzymes was exactly 10 min. The values of COX inhibition were calculated as the mean of duplicates and shown as the mean ± SD of ≥2 independent experiments.

Data set [5] addresses T2, COX-2. Put plainly: COX Inhibitor Screening Assay (EIA) on isolated COX-2 isoenzyme. In kind it is biochemical. The note with it: incubation 10 min. The procedure:
as §1

Details of data set [6]: method as in doi:10.1002/zaac.19603050315. The following applies: forms elemental platinum in an internal redox reaction; cited from earlier work.

What is called inhibition is the drop in the measured response relative to a control, in per cent. Higher therefore signals a strong effect. In turn, `CC(=O)Oc1ccccc1C(=O)O` [ASA, Acetylsalicylic acid] yielded an inhibition at 10 µM in data set [1] (Homo sapiens) of 17.9%. Besides, the “Concentration causing significant effects on COX-1” value at COX-1 [2] is “higher than 100 µM”. Further, at COX-2 [3], the “Concentration causing significant effects on COX-2” value was “higher than 100 µM”.

As for `C=C.O.[Cl][Pt-]([Cl])[Cl].[K+]` [Zeise’s salt], the “Inhibition of COX-1” value was found to be 37.3% at COX-1 [4] (1 µM) and 94.4% at COX-1 [4] (10 µM). Moreover, the “Inhibition of COX-2” value was 1.5% on COX-2 [5] (1 µM) and 8.3% at COX-2 [5] (10 µM). For the same compound, in data set [1] (10 µM), the “Inhibition of PGE2 synthesis” value was 24.5%. For the same compound, the “Stability in aqueous environment” value in data set [6] was “not stable”.
